Results reported in patent publication US20180000771A1, “AGENT FOR PREVENTING AND/OR TREATING AMYOTROPHIC LATERAL SCLEROSIS” (KYOTO UNIVERSITY, priority 2015, published 2018).

Legend:
[1] = test system: motoneuron cells derived from iPS cells having SOD1-L144FVX mutation; details: 168 h
[2] = test system: motoneuron cells derived from iPS cells of ALS patients having C9orf72 mutation; assay: survival of motoneuron cells induced from ALS patient iPS cells (C9orf72 mutation); assay type: cell-based, human; details: added on day 7, survived motoneuron cells counted on day 14
[3] = test system: motoneuron cells derived from iPS cells of sporadic ALS patients; assay: survival of motoneuron cells induced from sporadic ALS patient iPS cells; assay type: cell-based, human; details: for cell survival rate improvement, sporadic / cell survival rate improving effect, significance, sporadic: added on day 7, survived motoneuron cells counted on day 14
[4] = test system: motoneuron cells derived from iPS cells having SOD1-L144FVX mutation; assay: survival of motoneuron cells induced from ALS patient iPS cells (SOD1 mutation); details: for dose correlation in the protection effect on motoneuron cell having SOD1 mutation: FIG. 2, FIG. 6; for cell survival rate improvement, SOD1 mutation / cell survival rate improving effect, significance, SOD1 mutation: added on day 7, survived motoneuron cells counted on day 14
[5] = test system: nerve cell derived from iPS cell having SOD1-L144FVX mutation; assay: neurite length of nerve cells derived from iPS cells; assay type: cell-based, human; details: 1 μM, cultured for 48 hr
Protocol: In detail, small clumps (diameter 40-100 μm) of iPS cell colonies were subjected to a filter treatment with Cell Strainer (BD Falcon), and cultured for 10 days in N2B27 medium [DMEM/F12, Neurobasal, N2 supplement, B27 supplement, L-Gln] added with 100 ng/ml human recombinant Noggin (R&D systems) and 1 μM SB431542 (Sigma) in a culture dish coated with poly-L-lysine (Sigma)/Laminin (BD Falcon) (PLL/LM). Then, the colonies were dissociated into small clumps with 200 U/ml collagenase added with CaCl2, and transferred into a culture dish coated with PLL/ECL (Millipore). After 7 days of culture, the cells were dissociated with Accutase (Innovative Cell Technologies), and cultured in a culture dish coated with PLL/ECL for 7 days (24 d). Finally, the cells dissociated with Accutase and selected by a 40 μm cell strainer (BD Falcon) were counted, cultured for 31 days (56d) in N2B27 medium added with 10 ng/ml BDNF, GDNF, and NT-3 (R&D systems) in a culture dish coated with PLL/LM/Fibronectin (Millipore) to give nerve cells from the iPS cells.

c-abl = assay: Western blot of c-abl phosphorylation in nerve cells; assay type: cell-based, human; details: 1 μM, nerve cells having SOD1 mutation
Protocol: (§1) It is known that phosphorylation of Erk is promoted in nerve cells having mutation SOD1. To examine the mechanism of these candidate medicaments, phosphorylation of Erk was examined by Western blot method. The Western blot method included dissolving cells in RIPA buffer containing 0.1% SDS, 150 mM NaCl, 1% NP-40, 0.5% deoxycholate, 50 mM Tris-HCl (pH 8.0), protease inhibitor (Roche) and phosphatase inhibitor (Roche), centrifugation, measurement of protein concentration, addition of 20 μg amount of protein to each lane, and electrophoresis in 10-20% polyacrylamide gel. After blotting to Immobilon-P membrane (Millipore), the cells were stained with antibodies against Erk, phosphorylated Erk, c-Abl and phosphorylated c-Abl and detected.

Erk = assay: Western blot of Erk phosphorylation in nerve cells; assay type: cell-based, human; details: 1 μM, nerve cells having SOD1 mutation
Protocol: as §1

| SMILES | MN index (motoneuron cell survival number ratio as compared to negative control) [1] | cell survival rate improvement, C9orf72 mutation [2] | cell survival rate improving effect, significance, C9orf72 mutation [2] | cell survival rate improvement, sporadic [3] | cell survival rate improving effect, significance, sporadic [3] | efficacy for ALS having SOD1 mutation (conclusion from Tables 5 and 6) [4] | dose correlation in the protection effect on motoneuron cell having SOD1 mutation [4] | cell survival rate improvement, SOD1 mutation [4] | cell survival rate improving effect, significance, SOD1 mutation [4] | length of neuritis [5] | phosphorylation of c-abl (c-abl) | efficacy for sporadic ALS (conclusion from Tables 5 and 6) [3] | phosphorylation of Erk (Erk) |
| --- | --- | --- | --- | --- | --- | --- | --- | --- | --- | --- | --- | --- | --- |
| CN(C)CCCn1cc(C2=C(c3c[nH]c4ccccc34)C(=O)NC2=O)c2ccccc21 [Bisindolyl-maleimide I, Bisindolylmaleimide I] | 7.96 |  |  |  |  |  |  |  |  |  |  |  |  |
| C[C@@H](Oc1cc(-c2cnn(C3CCNCC3)c2)cnc1N)c1c(Cl)ccc(F)c1Cl [Crizotinib] |  | x (cell survival rate improvement less than 20%) | ○ (significant difference (p < 0.05)) | x (cell survival rate improvement less than 20%) | x (no significant difference (p ≧ 0.05)) | higher efficacy | increase in the effect in a dose-dependent manner | ○ (cell survival rate improvement not less than 20%) | ○ (significant difference (p < 0.05)) |  |  |  |  |
| Cc1ccc(Nc2nccc(N(C)c3ccc4c(C)n(C)nc4c3)n2)cc1S(N)(=O)=O [Pazopanib] |  | ○ (cell survival rate improvement not less than 20%) | ○ (significant difference (p < 0.05)) | x (cell survival rate improvement less than 20%) | x (no significant difference (p ≧ 0.05)) |  |  | x (cell survival rate improvement less than 20%) | ○ (significant difference (p < 0.05)) |  |  |  |  |
| CCN(CC)CCNC(=O)c1c(C)[nH]c(/C=C2\C(=O)Nc3ccc(F)cc32)c1C [Sunitinib] |  | ○ (cell survival rate improvement not less than 20%) | ○ (significant difference (p < 0.05)) | ○ (cell survival rate improvement not less than 20%) | ○ (significant difference (p < 0.05)) |  |  | ○ (cell survival rate improvement not less than 20%) | ○ (significant difference (p < 0.05)) |  |  |  |  |
| COc1cc2nccc(Oc3ccc(NC(=O)Nc4cc(C)on4)c(Cl)c3)c2cc1OC [Tivozanib] |  | x (cell survival rate improvement less than 20%) | ○ (significant difference (p < 0.05)) | ○ (cell survival rate improvement not less than 20%) | ○ (significant difference (p < 0.05)) | higher efficacy | increase in the effect in a dose-dependent manner | ○ (cell survival rate improvement not less than 20%) | ○ (significant difference (p < 0.05)) | elongation of neuritis | decreased | higher efficacy | decreased |
